Columns and labels:
[1] = system: human cancer cell lines; assay: Cancer cell direct cytotoxicity assay, panel statement; assay type: cell-based; details: panel of human cancer cell lines
Experimental: (§1) Bystander activity of ADCs was evaluated using Renca cancer cells and THP1-Dual™ cells (InvivoGen) which contain an IRF-Lucia luciferase reporter. Cells were cultured in RPMI-1640 (Gibco) with 10% heat-inactivated fetal bovine serum, Pen-Strep (100 U/ml-100 μg/ml, Gibco), HEPES (10 mM, Gibco), sodium pyruvate (1 mM, Gibco), MEM non-essential amino acids (1×, Gibco), GlutaMAX (1×, Gibco), and beta-mercaptoethanol (55 μM, Gibco). Renca cells were plated in a 96-well flat bottom tissue culture-treated clear polystyrene plate (Corning Costar #3596) at 50,000 cells per well in 100 μL. On the day following the initial plating, 50,000 THP1-Dual™ cells were added to each well with the indicated concentration of ADC in a total volume of 200 μL. Supernatant was harvested at 48 hours post addition of the THP1-Dual™ cells. To measure Lucia reporter signal, 10 μL of supernatant was combined with 40 μL of QUANTI-Luc™ Luminescence assay reagent (Invivogen PN: rep-qlc1) in a 96-well clear flat bottom tissue culture-treated black polystyrene plate (Corning Costar PN: 3603) and read on a Perkin Elmer Envision plate reader. In some experiments, HEK 293T cells engineered to express a murine protein typically expressed by immune cells (target antigen C— an immune cell antigen) were plated as above instead of Renca tumor cells. Cancer Cell Direct Cytotoxicity Assay
Cancer cells were counted and plated in 40 μL complete growth media in 384-well, white-walled tissue culture treated plates (Corning). Cell plates were incubated at 37° C. and with 5% CO2 overnight to allow the cells to equilibrate. […] The luminescence of the samples was measured using an EnVision Multimode plate reader (Perkin Elmer, Waltham, MA). […]
Compound 12a was conjugated to both targeted and non-binding antibodies using a variety of non-cleavable linkers (12, 17, 19-24) and the resulting ADCs were assessed for their ability to activate THP1-Dual™ reporter cells. […] We also evaluated the ability of these linkers to directly kill cancer cells when conjugated to targeted mAbs binding tumor antigen A or antigen B (CD30).

[2] = system: DEL; assay: Cancer cell direct cytotoxicity assay (CellTiter-Glo), DEL; assay type: cell-based; details: Homo sapiens, 96 h, free compound, read-out: Compound X50
Experimental: as §1
(§2) Cancer cells were counted and plated in 40 μL complete growth media in 384-well, white-walled tissue culture treated plates (Corning). Cell plates were incubated at 37° C. and with 5% CO2 overnight to allow the cells to equilibrate. Stock solutions containing ADCs or free drugs were serially diluted in RPMI-1640+20% fetal bovine serum (FBS). 10 μL of each concentration were then added to each cell plate in duplicate. Cells were then incubated at 37° C. and with 5% CO2 for 96 hours, upon which, the cell plates were removed from the incubator and allowed to cool to room temperature for 30 minutes prior to analysis. […] The luminescence of the samples was measured using an EnVision Multimode plate reader (Perkin Elmer, Waltham, MA). […]

[3] = system: Renca cancer cells; assay: Renca tumor model, in vivo anti-tumor activity and weight change; details: for anti-tumor activity / tumor growth delay: Renca tumor-bearing Balb/c mice
Experimental: In some experiments, Renca tumor cells were engineered to express the indicated murine or human target antigen.
When tumor volumes reached 100 mm^3, the mice were dosed with either compounds or ADCs by intraperitoneal or intravenous injection at the indicated dosing schedule and tumor volumes were monitored twice weekly. Compounds were formulated in 40% PEG400 in saline.
A syngeneic system was used to assess the ability of the STING agonist ADCs to induce immune responses in vivo and drive an anti-tumor immune response. The Renca system is a subcutaneous, mouse renal adenocarcinoma model. Female Balb/c mice were implanted with 2×10^6 Renca cells subcutaneously in the flank on day 0. When mean tumor size of 100 mm^3 (measured by using the formula Volume (mm^3)=0.5*Length*Width^2 where length is the longer dimension) was reached mice were randomized into treatment groups of ≥5 mice per group. Animals were then treated intraperitoneally (ADCs or compounds) or intravenously (compounds) with the indicated treatment every 7 days, for 3 doses total (or as indicated). Tumor length and width and the weight of the animals was measured throughout the study and tumor volume was calculated using the formula above. Animals were followed until the tumor volume reached ˜1000 mm^3; animals were then euthanized.

[4] = system: DELBVR; assay: Cancer cell direct cytotoxicity assay (CellTiter-Glo), DELBVR; assay type: cell-based; details: Homo sapiens, 96 h, free compound, read-out: Compound X50
Experimental: as §1, §2

[5] = system: BxPC3; assay: Cancer cell direct cytotoxicity assay (CellTiter-Glo), BxPC3; assay type: cell-based; details: Homo sapiens, BXPC-3; BxPC3, 96 h, free compound; read-out: Compound X50
Experimental: as §1, §2

[6] = system: SU-DHL-4; assay: Cancer cell direct cytotoxicity assay (CellTiter-Glo), SU-DHL-4; assay type: cell-based; details: Homo sapiens; SU-DHL-4, 96 h, free compound; read-out: Compound X50
Experimental: as §1, §2

[7] = system: wild type (WT) murine bone marrow-derived macrophages; assay: Bone marrow-derived macrophage assay, wild type; assay type: cell-based, mouse; details: 24 h
Experimental: Bone Marrow-Derived Macrophage Assay
Potency of the compounds described herein was evaluated using mouse bone-marrow derived macrophages cultured from wild type (C57BL/6J, the Jackson Laboratory #000664) or STING-deficient (C57BL/6J-Sting1^gt/J, the Jackson Laboratory #017537) mice. Briefly, mouse bone marrow cells were cultured for 7-10 days in RPMI-1640 (Gibco) with 10% heat-inactivated fetal bovine serum, Pen-Strep (100 U/mL-100 μg/mL, Gibco), HEPES (10 mM, Gibco)), sodium pyruvate (1 mM, Gibco), GlutaMAX (1×, Gibco), beta-mercaptoethanol (55 μM, Gibco) and 20-40 ng/mL murine M-CSF (Peprotech, #315-02). Cells were plated in a 96-well flat bottom tissue culture-treated clear polystyrene plate (Corning Costar #3596) at ˜100,000 cells per well in 200 μL with the indicated concentration of the compound. The supernatant was harvested at 24 hours and cytokines were measured using a Milliplex MAP mouse cytokine/chemokine magnetic bead panel assay kit (MCYTOMAG-70k custom 11-plex kit: MCP1, MIP1α, MIP1β, TNFα, IFNγ, IL-10, IL-12p70, IL-1β, IL-6, IP10, RANTES) and analyzed using a Luminex™ MAGPIX™ Instrument System.

SMILES | direct cytotoxic activity on cancer cell lines [1] | IC50 [2] [nM] | anti-tumor activity / tumor growth delay ([3]; q7dx3) | tolerability ([3]; Renca tumor-bearing mice) | average weight loss after the 1st and 2nd dose ([3]; Renca tumor-bearing mice, q7dx3) [%] | IC50 [4] [nM] | IC50 [5] [nM] | IC50 [6] [nM] | cytokine production [7]
CCn1nc(C)cc1C(=O)Nc1nc2cc(C(N)=O)cc(O)c2n1C/C=C/Cn1c(NC(=O)c2cc(C)nn2CC)nc2cc(C(N)=O)cc(OC)c21 [Compound 1, (E)-1-(4-(5-carbamoyl-2-(1-ethyl-3-methyl-1H-pyrazole-5-carboxamido)-7-hydroxy-1H-benzo[d]imidazol-1-yl)but-2-en-1-yl)-2-(1-ethyl-3-methyl-1H-pyrazole-5-carboxamido)-7-methoxy-1H-benzo[d]imidazole-5-carboxamide] | demonstrated direct cytotoxic activity on a subset of cancer cell lines | 2 | some tumor growth delay | well tolerated | < 5 | 16 | > 1000 | > 1000 | induced cytokine production
CCn1nc(C)cc1C(=O)Nc1nc2cc(C(N)=O)cc(OC)c2n1C/C=C/Cn1c(NC(=O)c2cc(C)nn2CC)nc2cc(C(N)=O)cc(OCCCNC)c21 [Compound 12a] | demonstrated direct cytotoxic activity on a subset of cancer cell lines | 3 | limited anti-tumor efficacy |  |  | 111 | > 1000 | > 1000 | induced cytokine production

Reference: patent US20240123079A1 (Seagen Inc., priority 2021, published 2024)
